Data reported in patent US20020161018A1, “Enhancement of the potency and efficacy of local anesthetics with ibutilide and other methanesulfonamide drugs” (priority 2001, published 2002).
“Also recorded” adds a separate entry of the source. Counter-ions that a name gives are not always drawn. Marks after values point to notes of the source that are not given here.

Tests used:
male ICR mice [1] = assay: Hot-plate paw-withdrawal test after popliteal (peri-sciatic nerve block) injection; format: in vivo; conditions: for local anesthesia of the drug alone in the presence of 1:200,000 epinephrine: 0.125% bupivacaine or ibutilide (3.9 nmoles), each with 1:200,000 epinephrine; for local anesthesia of the drug alone (paw-withdrawal latency): 0.5% bupivacaine or ibutilide (3.9 nmoles) with vehicle, 60-min time-course, or bupivacaine dose-response at 10-min; for Potency ratio (95% C.L.): 10-min; for % Bupivacaine ED50 (95% C.L.): tested 10-min later
Procedure: Animals: Male ICR mice (25-30 gm) were obtained from Harlan Sprague Dawley. The mice were housed in groups of four to six and kept on a 12-h light/12-h dark cycle. Mice were tested during the light cycle; and the original groupings were maintained (i.e., mice were not recombined into new groups or isolated) to decrease infighting and consequent stress that could confound the results. Behavioral Procedures: Following the procedure of Leszczynska and Kau (1992), each mouse was placed on a ¼inch wire mesh screen, which was then inverted; a mouse with no motor defects walks in a characteristic circular pattern, grasping the mesh with each paw and then letting go. Mice that could not walk normally at baseline were not used for testing. […] Baseline paw withdrawal latencies ranged between 2- to 3-sec. After collecting baseline data, the mice were injected with vehicle, ibutilide, or bupivacaine mixed with vehicle or ibutilide. At the appropriate times, motor scores and test paw withdrawal latencies were obtained. A 20-sec cut-off was employed to prevent tissue damage on the hot-plate test. Injection Procedures: Each mouse was injected with drug solution using a 30 gauge,½ inch needle attached to a 1 ml syringe (needle and syringe from Becton Dickinson). The animals were gently restrained, while the limb to be injected was extended to expose the popliteal space, which is behind the knee of the mouse. The needle was inserted in the popliteal space, and 0.05 ml of drug solutions injected. The nerve bundle of the sciatic nerve passes through the popliteal space. Thus, the limb and paw distal to the injection is effectively anesthetized. The motor and sensory tests were then repeated at 5-min intervals for a 1-h period. […] Some mice could place their paw on the screen, but could not grasp the screen with their digits; this was determined to be an intermediate phase. The motor block was determined to be resolved when the mouse could walk on the inverted screen using both the leg and paw. Sensory blockade was assessed by measuring in seconds, the time the bupivacaine-injected paw remained on hot-plate surface before withdrawing it. The test was terminated if the cut-off of 20-sec occurred during the test procedure. For time-course studies, two-factor repeated measures analysis of variance followed by the post hoc Tukey's test was used to assess for significant increases in paw withdrawal latencies compared to baseline. In addition, the effect of ibutilide to enhance bupivacaine was assessed, and compared with the appropriate controls at each time point during the 60-min test period. For dose-response curves, the data was converted to the percentage of maximum possible effect, which was calculated as: % MPE=[(Test−Baseline)/(20 −Baseline)]×100. […] The absence of overlapping confidence limits was used to indicate significant differences in ED50 values between dose-response curves. Potency-ratio values with 95% confidence limits were calculated by the method of Colquhoun (1971). Drugs: Sterile isotonic saline was used to dissolve and dilute drug solutions. Bupivacaine HCl was purchased from the MCV Hospitals Pharmacy (Winthrop Pharmaceuticals, NY, N.Y. ). To assure consistency, the same vial of bupivacaine was used for all injections involving bupivicaine. The concentration was varied by either diluting with normal saline, or by freeze-drying and then reconstituting the material with normal saline. The same vial of bupivacaine with 1:200,000 epinephrine was used for the second set of experiments. The epinephrine dose was adjusted by adding epinephrine to maintain a constant concentration of epinephrine 2.76×10^−5 M. Ibutilide fumarate was purchased from the MCV Hospitals Pharmacy (Pharmacia & Upjohn Company of Kalamazoo, Mich.). The concentration of ibutilide was held constant at 3.9 nanomoles (nmoles) per mouse. Enhancement of Bupivacaine HCl with Ibutilide. Experiments were conducted to determine whether ibutilide would enhance the local anesthetic effects of bupivacaine. […]

male ICR mice [2] = assay: Radiant heat tail-flick test after subcutaneous infiltration of the tail (infiltration anesthesia); format: in vivo; conditions: for % Bupivacaine ED50 (95% C.L.): bupivacaine mixed with vehicle or sotalol (10 nmoles), infiltrated in mouse tail
Procedure: Methods of handling mice. Male ICR mice (Harlan Laboratories, Indianapolis, Ind.) weighing 27.0±0.4 g were housed 6 to a cage in animal care quarters maintained at 22±2 ° C. on a 12-h light-dark cycle. Food and water were available ad libitum. The mice were brought to a test room (22±2° C. , 12-h light-dark cycle), marked for identification and allowed 16-h to recover from transport and handling. The Institutional Animal Care and Use Committee at the Medical College of Virginia Campus of Virginia Commonwealth University approved all the procedures in this study.
The tail-flick test. The tail-flick test used to assess for infiltration anesthesia was developed by D'Amour and Smith (1941) and modified by Dewey et al (1970). The tail-flick device is designed to focus a light beam onto the site infiltrated with local anesthetic, without exposing non-injected tissue to the noxious radiant heat stimulus. The intensity was adjusted to yield baseline latencies of between 2- to 4-sec. A single baseline latency was obtained approximately 15-min before the mice were injected with drug. A 10-sec cut-off was used to prevent any potential tissue damage. In experiments testing for potential underlying infiltration anesthesia that was not observed with the higher heat stimulus, the intensity was reduced to yield baseline latencies of about 6-sec. A 12-sec cut-off was used in these experiments.
Subcutaneous infiltration of bupivacaine. Before infiltration of vehicle or drug, baseline tail-flick latencies were obtained by exposing the tail to noxious radiant heat at the site to be infiltrated with drug. The baseline average over the entire study was 3.1±0.1 sec. The mice were then restrained to allow us unencumbered access to the tail. A 26-gauge ⅝ needle was inserted approximately 1.0 to 1.3 cm longitudinally under the skin in the subcutaneous space in the dorsal aspect of the tail. The needle was attached to a 1-ml syringe (Becton Dickinson, Franklin Lakes, N.J. ) pre-filled with drug solution. A […] volume of drug solution was infiltrated, and the needle was left in place for 5-s to prevent leakage of injectate from the site after removing the needle. During injection, the solution dispersed around the circumference of the tail in a rostral-caudal direction of about 2- to 3-cm. A slight blanching of the skin that reversed within 1 to 2 min indicated the extent of the spread of solution. A non-toxic marking pen was used to mark the most rostral spread of solution. Tail-flick testing was conducted below the area marked on the tail. These methods are detailed in a previous report (Smith et al. 1997).
Experimental design. Sotalol was solubilized and then mixed with bupivacaine HCl for co-infiltration of the tail. The influence of increasing concentrations of sotalol on the ED50 dose of bupivacaine was also examined. Both baseline and test tail-flick latencies from each animal were converted into the percentage of maximum possible effect (% MPE) according to the method of Harris and Pierson (1964), which was calculated as: % MPE=[(test−baseline)/(10−baseline)]×100. The ordinate was % MPE, while the abscissa was expressed as the dose of sotalol. Complete bupivacaine dose-response curves were generated in the absence and presence of sotalol (10 nmole) for calculation of ED50 and potency ratio values. The ordinate was % MPE, while the abscissa was expressed as the % bupivacaine dose.
Statistical analyses: The Tail-Flick Latency (sec) values were analyzed with one factor ANOVA for experiments in which different concentrations of sotalol were tested with an ED50 dose of bupivacaine. A statistically significant F-value led to post hoc comparisons using the Tukey's test. The % MPE values for dose-response curves were analyzed in the following manner. ED50 values were calculated using least squares linear regression analysis of % MPE values followed by calculation of 95% confidence limits (C.L.) according to the method of Bliss (1967). […]

[3] = bupivacaine containing 1:200,000 epinephrine mixed with vehicle or ibutilide (3.9 nmoles), popliteal space, hot-plate
[4] = hot-plate 56° C., bupivacaine mixed with vehicle or ibutilide (3.9 nmoles), injected in popliteal space, no epinephrine

`CCCCCCCN(CC)CCCC(O)c1ccc(NS(C)(=O)=O)cc1` (racemic) [Ibutilide, (±) N-[4-[4-(Ethylheptylamino)-1-hydroxybutyl]phenyl]methanesulfonamide (E)-2-butenedioate (2:1) salt] was tested, and the “local anesthesia of the drug alone in the presence of 1:200,000 epinephrine” value (male ICR mice [1]; 1-h time-course) was “failed to elicit any anesthetic effects”, the “local anesthesia of the drug alone (paw-withdrawal latency)” value (male ICR mice [1]; no epinephrine) was “no anesthesia; also recorded: inactive” and the “Potency ratio (95% C.L.)” value (male ICR mice [1]; bupivacaine + 1:200,000 epinephrine + ibutilide (3.9 nmoles) vs vehicle control, hot-plate) was 6.8 (4.3 to 12.7)**. For the same compound, the “Potency ratio (95% C.L.)” value (male ICR mice [1]; bupivacaine + ibutilide (3.9 nmoles) vs bupivacaine + vehicle, hot-plate, no epinephrine) was 2.8 (1.9 to 3.8)**, the “% Bupivacaine ED50 (95% C.L.)” value (male ICR mice [1]; [3]) was 0.05% (0.04 to 0.06)** and the “% Bupivacaine ED50 (95% C.L.)” value (male ICR mice [1]; [4]) was 0.24% (0.19 to 0.30)**. The “enhancement of the local anesthetic effects of 0.5% bupivacaine” value (male ICR mice [1]; ibutilide 3.9 nmoles mixed with 0.5% bupivacaine, 60-min time-course, no epinephrine) was “markedly enhanced; also recorded: significantly increased”, the “duration of enhancement of the local anesthetic effects of 0.5% bupivacaine” value (male ICR mice [1]; ibutilide 3.9 nmoles mixed with 0.5% bupivacaine, tested every 5 min for 1-h) was 35 min and the “enhancement of the amount (efficacy) of 0.125% bupivacaine + 1:200,000 epinephrine” value (male ICR mice [1]; ibutilide 3.9 nmoles, 1-h time-course) was “greatly increased”. The “increase in relative potency of bupivacaine+1:200,000 epinephrine” value (male ICR mice [1]; in the presence of ibutilide (3.9 nmoles), hot-plate) was 6.8 fold and the “increase in potency of bupivacaine” value (male ICR mice [1]; in the presence of ibutilide (3.9 nmoles), hot-plate, no epinephrine) was 2.8 fold.

In the case of `CC(C)NCC(O)c1ccc(NS(C)(=O)=O)cc1.Cl` (stereo not shown) [Sotalol, N-[4-[1-hydroxy-2-[(1-methylethyl)amino]ethyl]phenyl]methanesulfonamide monohydrochloride], the “Potency ratio (95% C.L.)” value (male ICR mice [2]; bupivacaine + sotalol (10 nmoles) vs bupivacaine + vehicle, tail-flick, 30-min) is reported as 2.7 (1.6 to 4.5), the “% Bupivacaine ED50 (95% C.L.)” value (male ICR mice [2]; tail-flick 30-min later) is reported as 0.04% (0.03 to 0.06)** and the “increase in potency of bupivacaine” value (male ICR mice [2]; in the presence of sotalol (10 nmoles), tail-flick, 30-min) is reported as 2.7 fold. The “enhancement of the anesthetic effects of an ED50 dose of bupivacaine (0.12%)” value (male ICR mice [2]; increasing doses of sotalol co-infiltrated, tail-flick 30-min later) was “enhanced in a dose-dependent fashion” and the “anesthetic effect of the drug alone” value (male ICR mice [2]; sotalol alone, tail infiltration, tail-flick 30-min later, monohydrochloride) was “inactive; also recorded: no anesthetic effects”.

For `CCCCN1CCCCC1C(=O)Nc1c(C)cccc1C` (stereo not shown) [bupivacaine], the “% Bupivacaine ED50 (95% C.L.)” value (male ICR mice [2]; tail-flick 30-min later) was 0.11% (0.08 to 0.15), the “local anesthesia of the drug alone in the presence of 1:200,000 epinephrine” value (male ICR mice [1]; 1-h time-course) was “elicited local anesthesia” and the “local anesthesia of the drug alone (paw-withdrawal latency)” value (male ICR mice [1]; no epinephrine) was “mild level of anesthesia; also recorded: dose-dependent anesthesia”. The “% Bupivacaine ED50 (95% C.L.)” value (male ICR mice [1]; [3]) was 0.31% (0.22 to 0.44) and the “% Bupivacaine ED50 (95% C.L.)” value (male ICR mice [1]; [4]) was 0.67% (0.59 to 0.77).

With `CNC[C@H](O)c1ccc(O)c(O)c1` [epinephrine] the “effect of 1:200,000 epinephrine on the efficacy of 0.125% bupivacaine” value (male ICR mice [1]; time-course experiments, hot-plate) was “increased”.
